From ChEMBL document CHEMBL1201862, “PubChem BioAssay data set” (2004)
Calls of active or inactive are those of the source.

Tests used:
[1] = target: T1, High affinity choline transporter 1 (Homo sapiens, UniProt Q9GZV3); assay: CHT inhibitors, dose response, cell-based, 5-point CRC, membrane potential dye (AID 504840); format: functional
T1 sequence (Q9GZV3 whole entry): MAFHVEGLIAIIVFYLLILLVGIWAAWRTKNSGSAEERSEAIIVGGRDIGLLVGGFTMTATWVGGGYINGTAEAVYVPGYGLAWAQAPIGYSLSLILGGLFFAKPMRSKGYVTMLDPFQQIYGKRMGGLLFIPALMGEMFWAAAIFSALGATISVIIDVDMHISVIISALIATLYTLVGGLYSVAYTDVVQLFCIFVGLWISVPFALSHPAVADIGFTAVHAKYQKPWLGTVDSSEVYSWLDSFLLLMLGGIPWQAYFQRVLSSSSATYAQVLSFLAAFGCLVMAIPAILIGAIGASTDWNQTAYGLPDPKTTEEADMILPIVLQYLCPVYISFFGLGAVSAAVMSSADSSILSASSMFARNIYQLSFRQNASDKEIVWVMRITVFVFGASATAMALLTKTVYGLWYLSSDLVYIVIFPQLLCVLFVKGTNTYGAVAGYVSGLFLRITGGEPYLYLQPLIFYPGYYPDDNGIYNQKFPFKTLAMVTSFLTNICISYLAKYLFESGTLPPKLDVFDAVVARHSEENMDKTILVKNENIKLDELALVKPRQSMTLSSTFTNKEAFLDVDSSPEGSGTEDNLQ

[2] = target: T2, Rac GTPase-activating protein 1 (Homo sapiens, UniProt Q9H0H5); assay: MgcRacGAP GTPase-activating activity inhibitors, confirmation, biochemical, ADP Hunter fluorescence, primary and confirmatory (AID 624330); format: functional
T2 sequence (Q9H0H5 whole entry): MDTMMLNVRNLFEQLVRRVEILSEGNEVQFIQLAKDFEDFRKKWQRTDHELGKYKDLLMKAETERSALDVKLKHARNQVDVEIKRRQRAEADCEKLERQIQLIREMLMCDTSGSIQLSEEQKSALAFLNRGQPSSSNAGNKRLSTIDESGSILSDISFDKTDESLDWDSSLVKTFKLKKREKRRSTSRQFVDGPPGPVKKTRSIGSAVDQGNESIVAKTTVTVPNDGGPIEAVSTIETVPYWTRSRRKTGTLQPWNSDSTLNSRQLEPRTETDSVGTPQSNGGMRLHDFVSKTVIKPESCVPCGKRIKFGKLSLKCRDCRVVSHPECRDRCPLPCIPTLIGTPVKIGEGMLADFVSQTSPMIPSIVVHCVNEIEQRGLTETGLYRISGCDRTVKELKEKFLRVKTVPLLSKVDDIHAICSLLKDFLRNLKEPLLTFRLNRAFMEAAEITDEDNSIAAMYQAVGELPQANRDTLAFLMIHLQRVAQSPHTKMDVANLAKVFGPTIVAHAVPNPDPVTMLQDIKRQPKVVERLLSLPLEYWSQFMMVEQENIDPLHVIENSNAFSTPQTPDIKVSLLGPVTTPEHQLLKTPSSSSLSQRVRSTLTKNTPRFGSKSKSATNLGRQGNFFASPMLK

[3] = Luminescence Cell-Based Dose Retest to Confirm Inhibitors of Cancer Stem Cells. [Related pubchem assays (depositor defined):AID2717, AID2721]; format: functional; conditions: Homo sapiens
[4] = target: T3, Short transient receptor potential channel 4 (Mus musculus, UniProt Q9QUQ5); assay: mouse TRPC4 channel inhibitors, dose response, cell-based, HEK293 TRPC4/mu-opioid, Fluo-4 calcium (AID 434942); format: functional;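 also: potency of inhibitors blocking the TRPC4 calcium response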
T3 sequence (Q9QUQ5 whole entry): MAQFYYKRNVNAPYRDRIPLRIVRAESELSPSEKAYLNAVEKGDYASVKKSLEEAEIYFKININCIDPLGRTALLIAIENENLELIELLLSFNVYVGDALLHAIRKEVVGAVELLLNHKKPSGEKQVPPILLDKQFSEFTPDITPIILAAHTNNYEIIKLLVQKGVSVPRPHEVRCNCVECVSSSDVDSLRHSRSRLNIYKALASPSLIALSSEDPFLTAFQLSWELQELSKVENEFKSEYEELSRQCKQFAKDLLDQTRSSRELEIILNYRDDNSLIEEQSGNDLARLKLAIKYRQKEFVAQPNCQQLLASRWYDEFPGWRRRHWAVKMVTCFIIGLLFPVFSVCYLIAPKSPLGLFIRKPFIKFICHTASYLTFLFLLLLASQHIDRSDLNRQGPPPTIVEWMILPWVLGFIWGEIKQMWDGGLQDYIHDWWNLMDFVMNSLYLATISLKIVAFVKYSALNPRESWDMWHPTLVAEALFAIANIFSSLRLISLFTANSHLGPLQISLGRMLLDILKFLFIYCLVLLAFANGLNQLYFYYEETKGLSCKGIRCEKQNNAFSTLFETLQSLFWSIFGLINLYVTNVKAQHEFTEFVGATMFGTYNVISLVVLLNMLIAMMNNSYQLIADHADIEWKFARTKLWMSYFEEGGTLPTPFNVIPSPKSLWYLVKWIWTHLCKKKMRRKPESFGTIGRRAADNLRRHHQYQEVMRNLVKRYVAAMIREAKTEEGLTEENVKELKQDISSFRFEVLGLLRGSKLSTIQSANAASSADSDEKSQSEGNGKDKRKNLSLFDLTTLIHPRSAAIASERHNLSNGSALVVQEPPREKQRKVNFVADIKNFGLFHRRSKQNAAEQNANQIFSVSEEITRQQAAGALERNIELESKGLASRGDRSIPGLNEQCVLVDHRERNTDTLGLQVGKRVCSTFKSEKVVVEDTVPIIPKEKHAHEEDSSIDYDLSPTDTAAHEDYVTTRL

[5] = target: T4, Corticotropin-releasing factor receptor 2/Corticotropin-releasing factor-binding protein (Homo sapiens, UniProt P24387+Q13324); assay: Dose Response confirmation of uHTS hits for small molecule antagonists of the CRF-binding protein and CRF-R2 receptor complex.; format: functional; conditions: read-out: IC50_Mean
T4 sequence (Q13324 whole entry): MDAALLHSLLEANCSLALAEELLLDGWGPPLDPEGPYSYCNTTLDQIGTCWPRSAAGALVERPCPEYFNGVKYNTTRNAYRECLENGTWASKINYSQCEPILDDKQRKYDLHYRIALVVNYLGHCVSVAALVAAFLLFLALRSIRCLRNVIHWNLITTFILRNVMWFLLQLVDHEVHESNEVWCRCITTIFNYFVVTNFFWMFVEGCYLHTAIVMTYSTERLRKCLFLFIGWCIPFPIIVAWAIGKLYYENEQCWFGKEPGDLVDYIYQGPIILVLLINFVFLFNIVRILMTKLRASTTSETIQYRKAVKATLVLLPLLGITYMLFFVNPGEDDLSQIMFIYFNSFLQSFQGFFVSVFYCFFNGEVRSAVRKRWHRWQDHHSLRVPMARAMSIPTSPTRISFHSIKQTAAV
T4 sequence (P24387 whole entry): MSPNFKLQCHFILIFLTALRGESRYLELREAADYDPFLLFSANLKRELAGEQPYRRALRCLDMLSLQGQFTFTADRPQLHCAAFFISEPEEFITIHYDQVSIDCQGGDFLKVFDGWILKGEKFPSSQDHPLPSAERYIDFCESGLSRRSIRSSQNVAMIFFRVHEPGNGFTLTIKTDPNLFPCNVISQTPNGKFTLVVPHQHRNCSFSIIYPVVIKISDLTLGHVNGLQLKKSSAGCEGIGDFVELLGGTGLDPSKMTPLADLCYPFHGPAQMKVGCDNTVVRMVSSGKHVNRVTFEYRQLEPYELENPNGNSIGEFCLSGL

[6] = target: T4, Corticotropin-releasing factor receptor 2/Corticotropin-releasing factor-binding protein; assay: activators of CRF receptor 2 with binding protein – uHTS hits, confirmation (AID 602473); format: functional; conditions: read-out: EC50_Mean
BJ [7] = assay: cytotoxicity toward BJ-TERT fibroblasts, dose response, cell-based, RAS-independent, luminescence (AID 1933); format: functional; conditions: Homo sapiens
BJ [8] = assay: cells; format: functional, cell-based; conditions: Homo sapiens
BJ [9] = assay: cytotoxicity toward BJ-TERT-LT-ST fibroblasts, dose response, cell-based, RAS-independent, luminescence (AID 1935); format: functional; conditions: Homo sapiens;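 also: BJ fibroblasts immortalized with TERT plus LT and ST oncogenes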
[10] = cytotoxicity toward DRD oncogenic fibroblasts, dose response, cell-based, non-viral oncogenic, luminescence (AID 1934); format: functional; conditions: Homo sapiens
[11] = system: Streptococcus sp. 'group A'; assay: growth inhibition of control SK(-) GAS strain, dose response, counter-screen for streptokinase expression inhibitor project, luminescence, kanamycin, BacTiterGlo, confirmation (AID 1900); format: functional, organism-based
Streptokinase A = target: T5, Streptokinase A (Streptococcus pyogenes serotype M1, UniProt P10520); assay: S. pyogenes streptokinase expression inhibitors, potency, dose response, plasminogen activation absorbance, OD405 (AID 1914); format: functional, Streptococcus pyogenes M1 GAS;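 also: secreted streptokinase activity via plasminogen activation per viability signal from cell pellet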
T5 sequence (P10520 whole entry): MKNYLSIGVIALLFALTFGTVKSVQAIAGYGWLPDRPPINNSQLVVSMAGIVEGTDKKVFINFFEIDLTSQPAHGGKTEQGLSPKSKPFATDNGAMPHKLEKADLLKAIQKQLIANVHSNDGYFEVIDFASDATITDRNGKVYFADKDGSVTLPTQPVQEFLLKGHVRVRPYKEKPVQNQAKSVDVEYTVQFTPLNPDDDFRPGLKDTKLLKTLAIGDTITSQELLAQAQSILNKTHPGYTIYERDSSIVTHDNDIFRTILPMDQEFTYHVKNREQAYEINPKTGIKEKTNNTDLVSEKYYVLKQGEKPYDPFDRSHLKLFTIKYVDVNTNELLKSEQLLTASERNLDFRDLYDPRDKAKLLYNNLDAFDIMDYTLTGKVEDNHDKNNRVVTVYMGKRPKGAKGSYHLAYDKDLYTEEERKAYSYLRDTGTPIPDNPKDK

[12] = inhibitors of intracellular T. cruzi replication, confirmation, NIH3T3 host cells, beta-gal luminescence (AID 2044); format: functional, cell-based;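 also: intracellular parasites grown in NIH/3T3 mouse fibroblasts as host cells; luminescent beta-galactosidase reporter signal from transgenic T. cruzi replicating inside host cells; inhibitors lower the luminescence signal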
[13] = cytotoxicity toward NIH3T3 fibroblasts, dose response, counter-screen, cell-based, ATP luminescence, mouse fibroblasts (AID 2010); format: functional;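 also: cells exposed to compound for about 90 hours before reading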
Streptococcus = assay: Group A Streptococcus viability loss, dose response, counter-screen for streptokinase expression inhibitor project, luminescence, BacTiterGlo (AID 1915); format: functional, organism-based;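 also: potency for reduction of bacterial viability or growth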
[14] = target: Heat shock protein HSP 90-alpha (Homo sapiens, UniProt P07900); format: functional, organism-based
[15] = target: Glyceraldehyde-3-phosphate dehydrogenase (Homo sapiens, UniProt P04406)
Sequence of Glyceraldehyde-3-phosphate dehydrogenase (P04406 whole entry): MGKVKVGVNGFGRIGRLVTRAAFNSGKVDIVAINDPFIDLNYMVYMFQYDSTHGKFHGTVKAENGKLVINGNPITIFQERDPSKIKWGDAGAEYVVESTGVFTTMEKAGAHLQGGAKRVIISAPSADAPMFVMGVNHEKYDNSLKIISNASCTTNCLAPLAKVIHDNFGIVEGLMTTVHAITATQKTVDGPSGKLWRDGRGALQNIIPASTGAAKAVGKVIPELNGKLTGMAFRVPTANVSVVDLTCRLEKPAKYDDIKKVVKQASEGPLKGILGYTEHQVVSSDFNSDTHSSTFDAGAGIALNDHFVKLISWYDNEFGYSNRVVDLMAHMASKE

[16] = HEK293T cytotoxicity, dose response, cytotoxicity control for miR-122 modulator project, cell-based, inhibitor set, cherry-pick, set 2 (AID 720697); format: functional

Compound: COc1cccc(CNc2ccc(N3CCC(C)CC3)cc2)c1OC
- IC50 [1]: 13.2 µM (active)
- IC50 [2]: 7.86 µM (active)

Compound: CCc1cc([N+](=O)[O-])cc(CC)c1N
- IC50 [1]: 13.8 µM (active)

Compound: O=C(CN1CCCC1)Nc1ccc(Cl)cc1C(=O)c1ccccc1
- AC50 [3]: 16.1 µM (active)
- EC50 [4]: 1.5 µM (active)

Compound: COCCN1CC(=O)N(c2cccc(C)c2C)C(c2ccc(Cl)cc2)C1=O (centres undefined)
- IC50 [5]: > 47.1 µM (inactive)
- EC50 [6]: > 53 µM (inactive)

Compound: CCC(C)NC(=O)Cn1cnc2sc(C)c(S(=O)(=O)N3CCCCC3)c2c1=O (centres undefined)
- IC50 [5]: > 47.1 µM (inactive)
- EC50 [6]: > 53 µM (inactive)

Compound: O=[N+]([O-])c1cccc(CSc2nnc3ccccn23)c1
- IC50 [1]: 16.6 µM (active)

Compound: N#CC1=C2SCC(O)(c3ccccc3)N2C(=O)CC1c1ccccc1 (centres undefined)
- EC50 (BJ [7]): 4.26 µM (active)
- EC50 (BJ [8]): 51.4 µM (active)
- EC50 (BJ [9]): 3.28 µM (active)
- EC50 [10]: 3.01 µM (active)

Compound: Cc1nn2c(NCc3ccccn3)cc(C(C)(C)C)nc2c1-c1ccccc1
- EC50 [11]: 3.41 µM (active)
- EC50 (Streptokinase A): > 150 µM (not active)
- EC50 [12]: 2.21 µM (active)
- EC50 [13]: > 60 µM (not active)
- EC50 (Streptococcus): 5.79 µM (active)
- AC50 [14]: 1.78 µM (active)

Compound: COc1cc2ccccc2cc1C(=O)Nc1ccc(S(=O)(=O)Nc2cc(C)on2)cc1
- IC50 [1]: 13.8 µM (active)

Compound: O=C1C(Cl)=C(N2CCN(c3ccccc3)CC2)C(=O)N1c1ccnc(Cl)c1
- IC50 [15]: > 50 µM (inconclusive)

Compound: CCOC(=O)C1CN(S(=O)(=O)c2ccccc2)CCN1S(=O)(=O)c1ccccc1 (centres undefined)
- AC50 [16]: 1.54 µM (active)

Compound: CCn1cc(/C=C(\NC(=O)c2ccccc2F)C(=O)N2CCOCC2)c2ccccc21
- IC50 [1]: 15.6 µM (active)
